Measured values published in patent EP4810038A1, “METHOD FOR TREATING ALK-POSITIVE OR ROS1-POSITIVE NON-SMALL CELL LUNG CANCER” (Shenzhen TargetRx Co., Ltd., priority 2023, dated 2025).
Values joined by “and” are separate entries in the source; they are usually repeats but may differ in a detail not shown here. Equal values may be shown once. Read-outs that look alike come from different tables or passages of the source.

Tests used:
[1] = Phase II single-arm trial: safety analysis; type: in vivo; settings: 60 mg QD
Text: Once a subject met the criteria for the discontinuation of the treatment/withdrawal from the treatment and discontinued the medication, the subject entered a 4-week safety follow-up period. If other anti-tumor therapies were used during the safety follow-up period, a safety follow-up visit and inspection must be completed before starting the other anti-tumor therapies. For the unresolved adverse event or abnormal laboratory test, the follow-up continued until the event was resolved, the subject returned to the baseline status, the condition stabilized, a reasonable explanation was obtained, or the subject was lost to follow-up or died.

[2] = system: ALK-positive advanced NSCLC who had failed a second-generation ALK inhibitor; assay: Phase II single-arm trial, 60 mg QD: whole-body tumor efficacy (IRC assessment); type: in vivo, human
Text: Variable of the research: whether the subjects achieved objective response (CR/PR) during the treatment, as assessed by the independent review committee (IRC).

[3] = Phase I clinical trial: pharmacokinetics after single and multiple oral administrations; type: in vivo, human; settings: for AR / Cmax / AUC / AUC(0-inf) / AUC(0-t) / half-life: GM (%CV); for Cmax / Tmax / AUC / AUC(0-inf) / AUC(0-t) / half-life: human, plasma, oral; for Tmax: Median (min-max); for AUC: read-out: AUC0-τ
Text: The PK parameters for single-dose administration mainly include peak concentration (Cmax), time to peak concentration (Tmax), half-life (T1/2), systemic clearance (CL), volume of distribution (Vd), AUC0-t, and AUC0-∞. The PK parameters for multiple-dose administration mainly include the area under the steady-state plasma concentration-time curve (AUCss), steady-state peak plasma concentration (Cmax, ss), steady-state trough plasma concentration (Cmin, ss), and steady-state time to peak plasma concentration (Tmax, ss).
Approximately eight dose groups in total were set in the dose escalation phase, which were 5 (the starting dose), 10, 20, 40, 60, 80, 100, and 125 mg, respectively. Subjects in all the dose groups received a single dose on day 1 (D1), and the blood samples were collected for pharmacokinetic (PK) assay and tolerability observation. If no grade 2 or a higher-level adverse event related to the investigational drug occurred during the single-dose period (5 to 7 days) (if such events occurred, dose adjustments would be made based on the toxicity according to the protocol), the subject entered the multiple-dose period (i.e., treatment period) 5 to 7 days later (7 days after the first administration in the first dose group (i.e., starting the multiple-dose treatment on day 8), and the intervals for the subsequent dose groups were determined based on the obtained tolerability and PK data). After entering the multiple-dose period, the subjects in the first dose group were initially administered with the drug once daily (QD) (if the PK data for the single-dose period had been obtained, the administration frequency for the multiple-dose period could be determined based on the PK data). The administration frequency for the subjects in the subsequent dose groups after entering the multiple-dose period was determined based on the obtained PK and tolerability data. In this trial, the administration frequency for all the subjects could be adjusted throughout the trial based on the continuously acquired safety and PK data. The four lower dose groups (5 mg, 10 mg, 20 mg and 40 mg) used an accelerated titration design, with one subject enrolled in each dose group. If any grade 2 or a higher-level adverse event related to the investigational drug occurred, the "3+3" dose escalation method would be switched to. The 60 mg dose group and the subsequent dose groups followed a "3+3" dose escalation method, and the MTD was determined. After the evaluation of the 8th dose group, if the researcher and the sponsor agreed that a higher dose group might have better efficacy and manageable safety, then a higher dose could be explored (e.g., the 9th dose group and the 10th dose group, at 150 mg and 180 mg, respectively). During the dose escalation, if a dose group was confirmed to have a preliminary antitumor effect and manageable safety (e.g., no DLT occurred in 3 subjects or only 1 out of 6 subjects experienced DLT), the dose level could be expanded after a discussion and confirmation by the researcher and the sponsor.
All the subjects in the dose escalation phase and dose expansion phase of this research needed to undergo intensive blood collection for PK study of the compound A, and all the subjects needed to undergo a population PK study of the compound A.

[4] = 158 subjects, cutoff May 20, 2024
[5] = whole-body, full analysis set (N=158)
[6] = Multiple administrations, 40 mg
[7] = Multiple administrations, 60 mg
[8] = Multiple administrations, 80 mg
[9] = Multiple administrations, 100 mg
[10] = Multiple administrations, 125 mg

Structure (SMILES): [2H]C([2H])([2H])n1nc2c(c1C#N)-c1cnc(N)c(c1)O[C@H](C)c1cc(F)ccc1C(=O)N(C)C2 [compound A, (10R)-7-amino-12-fluoro-2-(methyl-d3)-10,16-dimethyl-15-oxo-10,15,16,17-tetrahydro-2H-8,4-(metheno)pyrazolo[4,3-h][2,5,11]benzoxadiazacyclotetradecine-3-carbonitrile]
- common TRAEs [1]: hypercholesterolemia, hypertriglyceridemia, weight gain, anemia, and peripheral edema
- incidence of TRAEs leading to dose reduction, temporary or permanent discontinuation of medication [1]: low
- median DOR [2, 4]: not yet reached
- median PFS [2, 4]: 11.14 months
- median TTR [2, 4]: 1.38 months
- ORR ([2]; subgroup ECOG PS score of 0 at baseline, FAS): 50.0%
- ORR ([2]; subgroup ECOG PS score of 1 to 2 at baseline, FAS): 40.8%
- ORR ([2]; subgroup age < 65 years old, FAS): 43.0%
- ORR ([2]; subgroup age ≥ 65 years old, FAS): 40.0%
- ORR ([2]; subgroup female, FAS): 42.9%
- ORR ([2]; subgroup male, FAS): 41.9%
- ORR ([2]; subgroup never received chemotherapy, FAS): 45.4%
- ORR ([2]; subgroup previously received chemotherapy, FAS): 37.7%
- ORR ([2]; subgroup with a smoking history, FAS): 38.6%
- ORR ([2]; subgroup with brain metastases at baseline, FAS): 45.3%
- ORR ([2]; subgroup without a smoking history, FAS): 39.4%
- ORR ([2]; subgroup without brain metastases at baseline, FAS): 38.9%
- BOR CR [2, 5]: 0 n (%)
- BOR NE [2, 5]: 2 (1.3) n (%)
- BOR PD [2, 5]: 25 (15.8) n (%)
- BOR PR [2, 5]: 67 n (%) and 67 (42.4) n (%)
- BOR SD [2, 5]: 64 (40.5) n (%)
- DCR [2, 5]: 131 (82.9) n (%)
- ORR [2, 5]: 67 n (%) and 67 (42.4) n (%)
- AR [3, 6]: 1.044(25 .1) [3]
- AR [3, 7]: 0.913(44.1 ) [3]
- AR [3, 8]: 1.256(45.9) [4]
- AR [3, 9]: 0.732(6 6.4) [3]
- AR [3, 10]: 0.606(36. 1) [3]
- Cmax ([3]; 40 mg, Multiple administrations, 40 mg, read-out: Cmax, SS): 387 ng/mL
- Tmax ([3]; 40 mg, Multiple administrations): 1 h
- Cmax ([3]; 40 mg, Single administration, 40 mg, read-out: Cmax): 392 ng/mL
- Tmax ([3]; 40 mg, Single administration): 0.98 h
- Cmax ([3]; 60 mg, Multiple administrations, 60 mg, read-out: Cmax, SS): 644 ng/mL
- Tmax ([3]; 60 mg, Multiple administrations): 0.533 h
- Cmax ([3]; 60 mg, Single administration, 60 mg, read-out: Cmax): 875 ng/mL
- Tmax ([3]; 60 mg, Single administration): 0.5 h
- Cmax ([3]; 80 mg, Multiple administrations, 80 mg, read-out: Cmax, SS): 589 ng/mL
- Tmax ([3]; 80 mg, Multiple administrations): 1.56 h
- Cmax ([3]; 80 mg, Single administration, 80 mg, read-out: Cmax): 524 ng/mL
- Tmax ([3]; 80 mg, Single administration): 0.7 h
- Cmax ([3]; 100 mg, Multiple administrations, 100 mg, read-out: Cmax, SS): 798 ng/mL
- Tmax ([3]; 100 mg, Multiple administrations): 1.97 h
- Cmax ([3]; 100 mg, Single administration, 100 mg, read-out: Cmax): 774 ng/mL
- Tmax ([3]; 100 mg, Single administration): 1.02 h
- Cmax ([3]; 125 mg, Multiple administrations, 125 mg, read-out: Cmax, SS): 987 ng/mL
- Tmax ([3]; 125 mg, Multiple administrations): 0.5 h
- Cmax ([3]; 125 mg, Single administration, 125 mg, read-out: Cmax): 1260 ng/mL
- Tmax ([3]; 125 mg, Single administration): 1.02 h
- AUC [3, 6]: 3880 ng·h/mL
- AUC [3, 7]: 5440 ng·h/mL
- AUC [3, 8]: 5500 ng·h/mL
- AUC [3, 9]: 7020 ng·h/mL
- AUC [3, 10]: 7700 ng·h/mL
- AUC(0-inf) ([3]; Single administration, 40 mg): 4710 ng·h/mL
- AUC(0-t) ([3]; Single administration, 40 mg): 4440 ng·h/mL
- half-life ([3]; Single administration, 40 mg): 27.8 h
- AUC(0-inf) ([3]; Single administration, 60 mg): 12200 ng·h/mL
- AUC(0-t) ([3]; Single administration, 60 mg): 11300 ng·h/mL
- half-life ([3]; Single administration, 60 mg): 33.6 h
- AUC(0-inf) ([3]; Single administration, 80 mg): 10100 ng·h/mL
- AUC(0-t) ([3]; Single administration, 80 mg): 9140 ng·h/mL
- half-life ([3]; Single administration, 80 mg): 34.2 h
- AUC(0-inf) ([3]; Single administration, 100 mg): 14600 ng·h/mL
- AUC(0-t) ([3]; Single administration, 100 mg): 13800 ng·h/mL
- half-life ([3]; Single administration, 100 mg): 30.5 h
- AUC(0-inf) ([3]; Single administration, 125 mg): 18700 ng·h/mL
- AUC(0-t) ([3]; Single administration, 125 mg): 17800 ng·h/mL
- half-life ([3]; Single administration, 125 mg): 29.2 h
